What is called IC50 is the concentration that inhibits the measured activity by half.

Data on 19 compounds can be found in US12286427B2, “Heterocyclic compounds and uses thereof” (Kumquat Biosciences Inc., priority 2020, dated 2025).

Each structure is given as a SMILES string. Bounds are passed on as bounds.

For one assay, the target named is mutant Kras (Homo sapiens, UniProt P01116). Nature of the assay: Nucleotide exchange assay (SOS1-mediated, BODIPY FL GDP fluorescence). The class given is biochemical. Particulars: 250 nM or 500 nM GDP-loaded K-Ras, SOS1 catalytic domain, fluorescent labelled GDP 0.36 μM, 70 minutes; read-out: IC50 against mutant Kras. As for the experimental part: (§1) For example, 250 nM or 500 nM GDP-loaded K-Ras proteins (e.g., wildtype or a mutant thereof including those mentioned in Example 6), each was incubated with different concentrations of compounds (for example ˜60 μM, ˜20 μM, ˜6.7 μM, ˜2.2 μM, ˜0.7 μM, ˜0.2 μM subject compound). A control reaction without subject compound was also included. SOS1 (catalytic domain) protein was added to the K-Ras protein solution. The nucleotide exchange reaction was initiated by adding fluorescent labelled GDP (Guanosine 5′-Diphosphate, BODIPY™ FL 2′-(or-3′)—O—(N-(2-Aminoethyl) Urethane) to a final concentration of 0.36 μM. Fluorescence was measured every 30 s for 70 minutes at 490 nm/515 nm (excitation/emission) in a M1000Pro plate reader (Tecan). Data is exported and analyzed to calculate an IC50 using GraphPad Prism (GraphPad Software). Samples were tested with or without a subject compound disclosed herein including compounds exemplified in Table 1 to assess each compound's ability to inhibit K-Ras signaling or its IC50 against a given Ras protein (e.g., a given mutant K-Ras) of interest.

A further assay addresses T1, wildtype Kras (Homo sapiens, UniProt P01116).
T1 construct: GST (N); made in house; host or cells: E. coli, e.g. BL21 (DE3)
The assay is described as above. The assay is classed as biochemical. Particulars: 250 nM or 500 nM GDP-loaded K-Ras, SOS1 catalytic domain, fluorescent labelled GDP 0.36 μM, 70 minutes; read-out: IC50 against wildtype Kras. As for the experimental part:
as §1

T1 sequence (P01116 1-188 isoform P01116-2): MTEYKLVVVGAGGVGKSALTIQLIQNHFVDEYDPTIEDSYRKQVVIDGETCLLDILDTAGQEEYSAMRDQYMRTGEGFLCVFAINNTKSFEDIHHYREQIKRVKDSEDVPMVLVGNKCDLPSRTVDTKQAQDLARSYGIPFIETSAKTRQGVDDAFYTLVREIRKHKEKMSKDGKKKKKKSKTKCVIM
Chain of mutant Kras (P01116 whole entry G12D, form open, the tested form may be a part): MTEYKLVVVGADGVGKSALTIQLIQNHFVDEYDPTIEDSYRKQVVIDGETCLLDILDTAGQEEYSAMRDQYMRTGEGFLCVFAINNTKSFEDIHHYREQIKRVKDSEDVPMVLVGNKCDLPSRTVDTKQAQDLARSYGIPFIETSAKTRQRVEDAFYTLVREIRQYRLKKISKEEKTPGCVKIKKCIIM

With `CN1CCC[C@H]1COc1nc(N2C[C@H](N)C[C@H](O)C2)c2cc(Cl)c(-c3cccc4sc(N)nc34)c(F)c2n1` [Compound 3, (3S,5R)-5-amino-1-(7-(2-aminobenzo[d]thiazol-4-yl)-6-chloro-8-fluoro-2-(((S)-1-methylpyrrolidin-2-yl)methoxy)quinazolin-4-yl)piperidin-3-ol], the IC50 is less than 500 nM on mutant Kras and 500 to 5000 nM at wildtype Kras.

Regarding `CN1CCC[C@H]1COc1nc(N2C[C@H](N)C[C@@H](O)C2)c2cc(Cl)c(-c3cccc4sc(N)nc34)c(F)c2n1` [Compound 4, (3R,5R)-5-amino-1-(7-(2-aminobenzo[d]thiazol-4-yl)-6-chloro-8-fluoro-2-(((S)-1-methylpyrrolidin-2-yl)methoxy)quinazolin-4-yl)piperidin-3-ol], the IC50 at mutant Kras was less than 500 nM; on wildtype Kras it was greater than 5000 nM.

Consider `CN1CCC[C@H]1COc1nc(N2CC(N)CC(O)C2)c2cc(Cl)c(-c3cccc4sc(N)nc34)c(F)c2n1` (stereo partly drawn) [Compound 5, 5-amino-1-(7-(2-aminobenzo[d]thiazol-4-yl)-6-chloro-8-fluoro-2-(((S)-1-methylpyrrolidin-2-yl)methoxy)quinazolin-4-yl)piperidin-3-ol], for which the IC50 at mutant Kras is less than 500 nM; on wildtype Kras, 500 to 5000 nM.

Regarding `CN1CCC[C@H]1COc1nc(N2C[C@H](N)C[C@H](F)C2)c2cc(Cl)c(-c3cccc4sc(N)nc34)c(F)c2n1` [Compound 6, 4-(4-((3R,5S)-3-amino-5-fluoropiperidin-1-yl)-6-chloro-8-fluoro-2-(((S)-1-methylpyrrolidin-2-yl)methoxy)quinazolin-7-yl)benzo[d]thiazol-2-amine], the IC50 at mutant Kras is 500 to 5000 nM; at wildtype Kras, greater than 5000 nM.

For the compound `CN1CCC[C@H]1COc1nc(N2C[C@H](N)C[C@@H](F)C2)c2cc(Cl)c(-c3cccc4sc(N)nc34)c(F)c2n1` [Compound 7, 4-(4-((3R,5R)-3-amino-5-fluoropiperidin-1-yl)-6-chloro-8-fluoro-2-(((S)-1-methylpyrrolidin-2-yl)methoxy)quinazolin-7-yl)benzo[d]thiazol-2-amine], the IC50 at mutant Kras was 500 to 5000 nM; at wildtype Kras, greater than 5000 nM.

Regarding `CN1CCC[C@H]1COc1nc(N2CCC[C@@H](N)C2)c2cc(Cl)c(-c3cccc4sc(N)nc34)c(F)c2n1` [Compound 8, 4-(4-((R)-3-aminopiperidin-1-yl)-6-chloro-8-fluoro-2-(((S)-1-methylpyrrolidin-2-yl)methoxy)quinazolin-7-yl)benzo[d]thiazol-2-amine], the IC50 at mutant Kras was less than 500 nM; at wildtype Kras it was 500 to 5000 nM.

Turning to `CN1CCC[C@H]1COc1nc(N2C[C@@H](N)[C@@H](F)C2)c2cc(Cl)c(-c3cccc4sc(N)nc34)c(F)c2n1` [Compound 10, 4-(4-((3R,4S)-3-amino-4-fluoropyrrolidin-1-yl)-6-chloro-8-fluoro-2-(((S)-1-methylpyrrolidin-2-yl)methoxy)quinazolin-7-yl)benzo[d]thiazol-2-amine], the IC50 on mutant Kras and at wildtype Kras was 500 to 5000 nM throughout.

Take `CN1CCC[C@H]1COc1nc(N2CC[C@H](N)C2)c2cc(Cl)c(-c3cccc4sc(N)nc34)c(F)c2n1` [Compound 11, 4-(4-((S)-3-aminopyrrolidin-1-yl)-6-chloro-8-fluoro-2-(((S)-1-methylpyrrolidin-2-yl)methoxy)quinazolin-7-yl)benzo[d]thiazol-2-amine]: the values for the IC50 on mutant Kras and at wildtype Kras were less than 500 nM and 500 to 5000 nM, respectively.

Consider `Nc1nc2c(-c3c(Cl)cc4c(N5CCNCC5)nc(OCC56CCCN5CCC6)nc4c3F)cccc2s1` [Compound 12, 4-(6-chloro-8-fluoro-4-(piperazin-1-yl)-2-((tetrahydro-1H-pyrrolizin-7a(5H)-yl)methoxy)quinazolin-7-yl)benzo[d]thiazol-2-amine], for which the IC50 at mutant Kras was less than 500 nM; at wildtype Kras, 500 to 5000 nM.

As for `Nc1nc2c(-c3cnc4c(N5CC6CCC(C5)N6)nc(OC[C@@]56CCCN5C[C@H](F)C6)nc4c3)ccc(F)c2s1` [Compound 13, 4-(4-(3,8-diazabicyclo[3.2.1]octan-3-yl)-2-(((2R,7aS)-2-fluorotetrahydro-1H-pyrrolizin-7a(5H)-yl)methoxy)pyrido[3,2-d]pyrimidin-7-yl)-7-fluorobenzo[d]thiazol-2-amine], the IC50 was less than 500 nM on mutant Kras and greater than 5000 nM at wildtype Kras.

As for `COc1nc2c(N3CC4CCC(C3)N4)nc(OC[C@@]34CCCN3C[C@H](F)C4)nc2cc1-c1ccc(F)c2sc(N)nc12` [Compound 14, 4-(4-(3,8-diazabicyclo[3.2.1]octan-3-yl)-2-(((2R,7aS)-2-fluorotetrahydro-1H-pyrrolizin-7a(5H)-yl)methoxy)-6-methoxypyrido[3,2-d]pyrimidin-7-yl)-7-fluorobenzo[d]thiazol-2-amine], the IC50 at mutant Kras was less than 500 nM; at wildtype Kras, 500 to 5000 nM.

For `COc1nc2c(N3C4CCC3CNC4)nc(OC[C@@]34CCCN3C[C@H](F)C4)nc2cc1-c1ccc(F)c2sc(N)nc12` [Compound 15, 4-(4-(3,8-diazabicyclo[3.2.1]octan-8-yl)-2-(((2R,7aS)-2-fluorotetrahydro-1H-pyrrolizin-7a(5H)-yl)methoxy)-6-methoxypyrido[3,2-d]pyrimidin-7-yl)-7-fluorobenzo[d]thiazol-2-amine], the IC50 is less than 500 nM on mutant Kras and greater than 5000 nM on wildtype Kras.

As to `Nc1nc2c(-c3cc4nc(OCC56CCCN5CCC6)nc(N5CC6CCC(C5)N6)c4nc3O)ccc(F)c2s1` [Compound 16, 7-(2-amino-7-fluorobenzo[d]thiazol-4-yl)-4-(3,8-diazabicyclo[3.2.1]octan-3-yl)-2-((tetrahydro-1H-pyrrolizin-7a(5H)-yl)methoxy)pyrido[3,2-d] pyrimidin-6-ol], the IC50 is less than 500 nM on mutant Kras and greater than 5000 nM on wildtype Kras.

Consider `COc1nc2c(N3CC4CCC(C3)N4)nc(OCC34CCCN3CCC4)nc2cc1-c1ccc(F)c2sc(N)nc12` [Compound 17, 4-(4-(3,8-diazabicyclo[3.2.1]octan-3-yl)-6-methoxy-2-((tetrahydro-1H-pyrrolizin-7a(5H)-yl)methoxy)pyrido[3,2-d]pyrimidin-7-yl)-7-fluorobenzo[d]thiazol-2-amine], for which the IC50 on mutant Kras was less than 500 nM; at wildtype Kras, 500 to 5000 nM.

As to `COc1nc2c(N3CCNCC3)nc(OC[C@@]34CCCN3C[C@H](F)C4)nc2cc1-c1ccc(F)c2sc(N)nc12` [Compound 18, 7-fluoro-4-(2-(((2R,7aS)-2-fluorotetrahydro-1H-pyrrolizin-7a(5H)-yl)methoxy)-6-methoxy-4-(piperazin-1-yl)pyrido[3,2-d]pyrimidin-7-yl) benzo[d]thiazol-2-amine], the values for the IC50 on mutant Kras and at wildtype Kras were 500 to 5000 nM and greater than 5000 nM, respectively.

For the compound `N#Cc1c(N)sc2c(F)ccc(-c3c(Cl)cc4c(N5C[C@H]6CC[C@@H](C5)N6)nc(OC[C@@]56CCCN5C[C@H](F)C6)nc4c3F)c12` [Compound 19, 4-(4-((1R,5S)-3,8-diazabicyclo[3.2.1]octan-3-yl)-6-chloro-8-fluoro-2-(((2R,7aS)-2-fluorotetrahydro-1H-pyrrolizin-7a(5H)-yl)methoxy)quinazolin-7-yl)-2-amino-7-fluorobenzo[b]thiophene-3-carbonitrile], the IC50 at mutant Kras and at wildtype Kras was less than 500 nM throughout.

As for `Nc1sc2c(F)ccc(-c3c(Cl)cc4c(N5C[C@H]6CC[C@@H](C5)N6)nc(OC[C@@]56CCCN5C[C@H](F)C6)nc4c3F)c2c1C1CC1` [Compound 20, 4-(4-((1R,5S)-3,8-diazabicyclo[3.2.1]octan-3-yl)-6-chloro-8-fluoro-2-(((2R,7aS)-2-fluorotetrahydro-1H-pyrrolizin-7a(5H)-yl)methoxy)quinazolin-7-yl)-3-cyclopropyl-7-fluorobenzo[b]thiophen-2-amine], the IC50 is less than 500 nM on mutant Kras and 500 to 5000 nM at wildtype Kras.

Consider `Cc1c(N)sc2c(F)ccc(-c3c(Cl)cc4c(N5C[C@H]6CC[C@@H](C5)N6)nc(OC[C@@]56CCCN5C[C@H](F)C6)nc4c3F)c12` [Compound 21, 4-(4-((1R,5S)-3,8-diazabicyclo[3.2.1]octan-3-yl)-6-chloro-8-fluoro-2-(((2R,7aS)-2-fluorotetrahydro-1H-pyrrolizin-7a(5H)-yl)methoxy)quinazolin-7-yl)-7-fluoro-3-methylbenzo[b]thiophen-2-amine], for which the IC50 at mutant Kras and at wildtype Kras was less than 500 nM throughout.

As to `Cc1c(N)sc2cccc(-c3c(Cl)cc4c(N5C[C@H]6CC[C@@H](C5)N6)nc(OC[C@@]56CCCN5C[C@H](F)C6)nc4c3F)c12` [Compound 22, 4-(4-((1R,5S)-3,8-diazabicyclo[3.2.1]octan-3-yl)-6-chloro-8-fluoro-2-(((2R,7aS)-2-fluorotetrahydro-1H-pyrrolizin-7a(5H)-yl)methoxy)quinazolin-7-yl)-3-methylbenzo[b]thiophen-2-amine], the IC50 at mutant Kras and on wildtype Kras was less than 500 nM throughout.
